From patent publication US11273166B2, “Methods and compositions for the treatment of obesity” (Monash University, priority 2017, dated 2022) come the findings set out here.

Common to all, as to assay type: in vivo, mouse
Data set [1] concerns AgRP neurons (hM4Di DREADD). Nature of the data set: CNO in Agrp-Ires-Cre; Npy-hrGFP mice with rAAV-hM4Di-mCherry (DREADD) in the ARC. Conditions: CNO 1.5 mg/kg/day i.p., 14 days. From the text: FIG. 3. TCPTP deletion in AgRP neurons or AgRP neuronal inhibition promotes WAT browning and energy expenditure. a) Body weights, b) body composition, c) energy expenditure, d) daily food intake and e) BAT Ucp-1 gene expression in 18-week-old AgRP-TC and Ptpn2^fl/fl male mice. Inguinal WAT (ingWAT) was extracted from Ptpn2^fl/fl and AgRP-TC male mice and processed for f) histology (hematoxylin and eosin: H&E) and immunohistochemistry, g) quantitative PCR and h) immunoblotting. i) Ptpn2^fl/fl and AgRP-TC and Ptpn2^fl/fl male mice were subjected to ^18F-fluoro-2-deoxy-D-glucose (^18F-FDG) positron emission tomography (PET)-computed tomography (CT). Representative images and ingWAT ^18F-FDG standard uptake values (SUV) and normalised uptake per tissue volume are shown. Ptpn2^fl/fl and AgRP-TC male mice ingWAT depots were bilaterally sham-operated or denervated with 6-ODHA and j) weekly body weights recorded and k) energy expenditure measured. l) Ptpn2^fl/fl, AgRP-TC or AgRP-TC-IR male mice were fasted overnight and administered (intraperitoneal) insulin (0.85 mU/g, 15 min) and brains extracted for ARC p-AKT immunohistochemistry. m) Energy expenditure, n) body weights and o) ingWAT weights in 14-week-old Ptpn2^fl/fl, AgRP-TC or AgRP-TC-IR male mice. p-r) IngWAT and BAT were extracted from Ptpn2^fl/fl, AgRP-TC or AgRP-TC-IR male mice for gene expression analyses or histology/immunohistochemistry. s-t) 10-week-old Npy-hrGFP; Agrp-Ires-Cre mice were bilaterally injected with rAAV-hM4Di-mCherry into the ARC. […] Representative and quantified results (means±SEM) are shown for the indicated number of mice. * for significance between Ptpn2^fl/fl and AgRP-TC mice; # for significance between treated AgRP-TC or AgRP verses AgRP-TC-IR mice.
FIG. 10. […] Representative and quantified results (means±SEM) are shown for the indicated number of mice. […]

The subject of data set [2] is diet-induced obese mice. Nature of the data set: Behavioral satiety sequence after ICV Claramine in overnight fasted high fat fed mice. Conditions: ICV 1 and 10 μg/animal. On the procedure:
(§1) FIG. 23. CNS administration of PTP1B inhibitor (Claramine) dose dependently attenuates body weight, adiposity and food intake without regulating energy expenditure in diet-induced obese mice. […] Data were collected into 5 min time bins and are presented as percentage of total behavior. Crossover graphs indicating the point of transition from eating to resting and the dashed line represents the time bin in which groups spent an equivalent amount of time eating and resting and is represented as f) time of cross over.

The test system of data set [3] is diet-induced obese mice. Briefly: ICV Claramine for 10 consecutive days in 12-week high fat fed mice. Conditions: ICV 1 and 10 μg/animal/day. How it is done:
as §1

For data set [4], the system named is 8-10-week C57BL/6 male mice. Briefly: Intranasal RU486 or Claramine for 10 consecutive days in 8-10-week C57BL/6 male mice. Conditions: RU486 1, 5, 10 or Claramine 1, 10 and 20 μg/animal/day.
The test system of data set [5] is TCPTP protein in the MBH. Nature of the data set: ICV MG132 in fasted (24 h) mice re-fed 4 h; MBH immunoblotting for TCPTP. Conditions: ICV 2 μl 50 μM, 4 h re-feeding. On the procedure: The alterations in hypothalamic TCPTP in fed and fasted mice might be a specific response to nutritional signals. To explore this, experiments were performed to determined when the hypothalamic TCPTP levels returned to the pre-fasted state, when 24 h fasted mice were re-fed for 4 h (FIG. 1a). Hypothalamic TCPTP protein, as assessed by immunoblotting MBH homogenates (FIG. 1c), or Ptpn2 expression, as assessed by real time PCR (FIG. 1d), declined to pre-fasted levels in re-fed mice. The decline in TCPTP occurred throughout the ARC (FIG. 8c). The decline in TCPTP was accompanied by increased IR and AKT phosphorylation (FIG. 1e), consistent with the potential enhancement of insulin sensitivity. Since the half-life for TCPTP protein is roughly 16 h (Bukczynska et al., 2004), we reasoned that the decline in TCPTP might reflect increased degradation. The proteasome can influence hypothalamic protein abundance in response to feeding (Sasaki et al., 2010). To test its contribution to TCPTP degradation in re-fed mice, we administered fasted (24 h) mice the proteasome inhibitor MG132 intracerebroventricularly (ICV) and assessed the influence on TCPTP protein in the MBH after 4 h of re-feeding.

The subject of data set [6] is PTP1B levels. Nature of the data set: ICV MG132 in fasted (24 h) mice re-fed 4 h; MBH immunoblotting for PTP1B. Conditions: ICV 2 μl 50 μM, 4 h re-feeding.
The test system of data set [7] is diet-induced obese mice. Nature of the data set: ICV RU486 for 10 consecutive days in 12-week high fat fed mice. Conditions: ICV 1 μg/animal. How it is done: FIG. 16. […] 12 week high fat fed C57BL/6 male mice were mice were sham or bi-laterally denervated (6-ODHA) to prevent WAT browning and then administered the glucocorticoid antagonist RU486 intracerebroventricularly (ICV; 1 μg/animal), twice daily (9 am & […]) for 10 consecutive days. Effects on body weight and adiposity (EchoMRI and fad pad weight) were determined. WAT browning was assessed by gross morphology.
FIG. 17. A glucocorticoid antagonist promotes WAT browning and increases energy expenditure without any obvious adverse behavioral effects. […] Effects on energy expenditure (indirect calorimetry) and stereotypical behaviors were determined using the Promethion metabolic cage system.
FIG. 22. […] 12-week high fat fed C57BL/6 male mice received glucocorticoid antagonist (RU486: 0.1, 1 and 2 μg/animal/day, ICV) for 10 consecutive days and a) body weights, b) food intake, c) adiposity (EchoMRI and fad pad weight), d) energy expenditure were determined.
Insulin and glucose tolerance tests and blood glucose and plasma insulin were measured as described previously (Dodd et al., 2015 as above; Loh et al., 2009 Cell Metab 10, 260-272). Plasma corticosterone was measured by ELISA (Arbor Assays). […]
Effects on body weight and adiposity (EchoMRI and fat pad weight) were determined. […]
Effects on energy expenditure and stereotypical behaviours were determined using the Promethion metabolic cages system.

In data set [8] the test system is hypothalamic TCPTP (Ptpn2) expression. Briefly: ICV ghrelin, UDP or dexamethasone (plus or minus RU486) in re-fed mice; hypothalamic TCPTP immunohistochemistry and Ptpn2 real time PCR. Conditions: for TCPTP protein levels (immunohistochemistry): ICV twice over 4 h in fasted and re-fed (4 h) mice.
In data set [9] the test system is 20-week high fat fed C57BL/6 male mice. Nature of the data set: Intra-ARC infusion of TCPTP inhibitor in 20-week high fat fed mice switched to chow diet. Conditions: intra-ARC 0.5 nmol/day at 0.25 ul/h, mice placed on chow diet (9% fat). How it is done: FIG. 18. […] 2-weeks post AAV injection mice were placed on chow diet (9% fat) and weekly body weight was monitored. b) 20-week high fat fed (23% fat) C57BL/6 male mice were implanted with bilateral intraARC cannula connected to Alzet osmotic minipumps (Alzet, 1002) and infused with vehicle or TCPTP inhibitor (compound 8 as described herein, 0.5 nmol/day at a rate of 0.25 ul/h). Mice were placed on chow diet (9% fat) and daily body weight was monitored.
2-weeks post AAV injection mice were placed on chow diet (9% fat) and weekly body weight was monitored. b) 20-week high fat fed (23% fat) C57BL/6 male mice were implanted with bilateral intra-ARC cannula connected to Alzet osmotic minipumps (Alzet, 1002) and infused with vehicle or TCPTP inhibitor (compound 8, 0.5 nmol/day at a rate of 0.25 ul/h). Mice were placed on chow diet (9% fat) and daily body weight was monitored.

For data set [10], the system named is ARC PI3K/AKT signaling (p-AKT). Briefly: Insulin-induced ARC p-AKT (Ser-473) immunohistochemistry in fed or fasted mice. Conditions: insulin 0.85 mU/g i.p., 15 min.

Residues, ends and D or L forms follow the SMILES beside them. *: point of attachment. Cbz = O=C(OCc1ccccc1)*

Take `C[N+]1([O-])CCN(C2=Nc3cc(Cl)ccc3Nc3ccccc32)CC1` [CNO, clozapine-N-oxide]: in data set [1], the body weights result was “decreased” and the food intake result is recorded as “decreased”. In addition, the WAT browning result in data set [1] (sham-operated vs 6-OHDA denervated inguinal fat pads) was “marked WAT browning in the sham-operated, but not in the contralateral 6-OHDA denervated inguinal fat pads”.
For `CC(C)CCC[C@@H](C)[C@H]1CC[C@H]2[C@@H]3C[C@@H](NCCCNCCCCNCCCN)C4C[C@@H](O)CC[C@]4(C)[C@H]3CC[C@]12C` (stereo partly drawn) [Claramine, (3β3,6β3)-6-[[3-[[4-[(3-Aminopropyl)amino]butyl]amino]propyl]amino]-cholestan-3-ol], in data set [2], the “adverse side effects as cause of reduced food intake” value is “not by adverse side effects such as sedation or nausea”. Besides, in data set [2] (overnight fasted, presented with food), the behavioral satiety sequence result is recorded as “dose dependent shift”. Also, in data set [3], the “adiposity (EchoMRI and fad pad weight)” value is “dose dependent attenuation”; the body weights entry is reported as “dose dependent attenuation”; the food intake entry is “dose dependent attenuation”. In addition, in data set [4], the adaptive thermogenesis entry is “dose dependent effect”, the adiposity result is “dose dependent effect”, the body weight result is “dose dependent effect” and the food intake entry was “dose dependent effect”.
`CC(C)C[C@@H](C=O)NC(=O)[C@H](CC(C)C)NC(=O)[C@H](CC(C)C)NC(=O)OCc1ccccc1` [MG132] (Cbz-Leu-Leu-Leu-aldehyde): the “feeding-induced degradation of TCPTP” value in [5] was “completely prevented”. In addition, in data set [6], the PTP1B levels result is recorded as “without affecting”.
As to `CC#C[C@]1(O)CC[C@H]2[C@@H]3CCC4=CC(=O)CCC4=C3[C@@H](c3ccc(N(C)C)cc3)C[C@@]21C` [RU486, 17-beta-hydroxy-11-beta-(4-dimethyl-aminophenyl)-17-alpha(1-propynyl)-estra-4,9-dien-3-one], the adverse behaviours entry in data set [7] was “not accompanied by adverse behaviours such as inactivity, hyperactivity or sedation”.
Turning to `O=c1ccn([C@@H]2O[C@H](COP(=O)(O)OP(=O)(O)O)[C@@H](O)[C@H]2O)c(=O)[nH]1` [UDP, uridine 5′-diphosphate], the “TCPTP protein levels (immunohistochemistry)” value in data set [8] is “Neither ghrelin nor UDP overtly altered”.
Regarding `CCc1ccc(C(=O)NCCCCC(NC(=O)C(Cc2ccc(C(F)(F)P(=O)(O)O)cc2)NC(=O)C(Cc2ccccc2)NC(=O)COC2CC(C)CCC2C(C)C)C(N)=O)cc1` (stereo not drawn) [compound 8], in data set [9], the “diet-induced weight loss (daily body weight)” value was “enhances diet-induced weight loss”.
Regarding ghrelin, the “TCPTP protein levels (immunohistochemistry)” value in [8] is “Neither ghrelin nor UDP overtly altered”. Moreover, in data set [8] (ICV twice over 4 h in re-fed mice, real time PCR), the “increase in Ptpn2 message” value is roughly 3 fold.
On to insulin: human insulin (SIGMA), for which the “ARC p-AKT in response to insulin” value in [10] (24 h fasted C57BL6 mice) is listed as “only modestly increased”. For the same molecule, the “induction of ARC p-AKT in response to insulin” value in data set [10] (fed C57BL6 mice) is 3-4 fold.
